The target in one assay is T1, F508del (Homo sapiens, UniProt P13569, DEL508-508).
T1 construct: expressed in transfected cells
T1 sequence (P13569 with tags, fused parts or gaps DEL508-508): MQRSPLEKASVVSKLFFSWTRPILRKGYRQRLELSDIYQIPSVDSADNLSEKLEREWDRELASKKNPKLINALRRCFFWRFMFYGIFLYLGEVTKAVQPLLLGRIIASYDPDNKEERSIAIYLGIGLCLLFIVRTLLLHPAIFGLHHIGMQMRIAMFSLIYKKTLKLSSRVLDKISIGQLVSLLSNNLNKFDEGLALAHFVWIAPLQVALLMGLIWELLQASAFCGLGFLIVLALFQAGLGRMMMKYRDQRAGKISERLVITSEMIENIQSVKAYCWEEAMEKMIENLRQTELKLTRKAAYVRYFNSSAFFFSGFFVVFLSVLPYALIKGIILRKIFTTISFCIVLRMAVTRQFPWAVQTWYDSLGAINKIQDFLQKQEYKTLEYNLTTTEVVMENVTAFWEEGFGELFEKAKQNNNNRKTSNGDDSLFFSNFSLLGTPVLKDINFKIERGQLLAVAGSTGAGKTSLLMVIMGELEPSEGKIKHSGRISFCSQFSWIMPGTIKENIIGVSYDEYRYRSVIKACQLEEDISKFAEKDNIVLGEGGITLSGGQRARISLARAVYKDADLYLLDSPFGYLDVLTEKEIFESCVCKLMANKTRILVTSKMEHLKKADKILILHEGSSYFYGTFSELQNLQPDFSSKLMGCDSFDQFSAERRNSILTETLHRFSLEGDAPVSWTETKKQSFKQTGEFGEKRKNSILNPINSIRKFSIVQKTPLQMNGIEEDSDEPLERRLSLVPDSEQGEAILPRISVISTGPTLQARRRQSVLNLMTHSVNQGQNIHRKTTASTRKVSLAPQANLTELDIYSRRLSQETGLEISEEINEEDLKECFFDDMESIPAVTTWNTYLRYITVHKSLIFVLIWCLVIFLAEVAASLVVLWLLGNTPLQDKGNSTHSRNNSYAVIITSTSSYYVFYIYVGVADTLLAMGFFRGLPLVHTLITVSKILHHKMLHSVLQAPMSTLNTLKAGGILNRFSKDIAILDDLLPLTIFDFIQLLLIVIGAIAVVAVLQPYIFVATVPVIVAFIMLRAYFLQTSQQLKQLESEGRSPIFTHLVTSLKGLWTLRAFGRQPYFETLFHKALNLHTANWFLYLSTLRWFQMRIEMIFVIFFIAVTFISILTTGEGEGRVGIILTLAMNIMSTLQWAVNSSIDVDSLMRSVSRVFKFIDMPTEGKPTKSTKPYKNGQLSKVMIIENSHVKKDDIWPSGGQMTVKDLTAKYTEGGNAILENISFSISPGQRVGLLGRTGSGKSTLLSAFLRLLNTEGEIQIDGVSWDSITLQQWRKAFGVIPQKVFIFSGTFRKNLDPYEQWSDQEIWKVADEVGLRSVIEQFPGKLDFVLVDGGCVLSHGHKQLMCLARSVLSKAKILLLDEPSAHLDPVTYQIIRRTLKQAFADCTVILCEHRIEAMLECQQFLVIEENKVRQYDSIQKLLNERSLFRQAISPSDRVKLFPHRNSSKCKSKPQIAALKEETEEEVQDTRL
Put plainly: Protocol 2: FRET membrane potential optical assay (VIPR), identification of correction compounds. The following applies: F508del CFTR modulator activity; compounds of Table 1. It is filed as cell-based. A digest of the protocol: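 Correction of the F508del trafficking defect is scored as forskolin (10 μM)/genistein (20 μM)-stimulated Cl^− efflux in NIH3T3 mouse fibroblasts after a 16 hr, 37° C. compound exposure. Depolarization was followed optically using voltage-sensing FRET dyes.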
For orientation: EC30 means the concentration at which the effect reaches the 30% level. For the molecule `CC(C)(C)c1ccc(C(=O)NS(=O)(=O)c2cccc(N)n2)c(N2CCC(C3CC3)C2(C)C)n1` (single isomer, unassigned) [Compound 2577, N-[(6-amino-2-pyridyl)sulfonyl]-6-tert-butyl-2-(3-cyclopropyl-2,2-dimethyl-pyrrolidin-1-yl)pyridine-3-carboxamide], the 30% effect concentration (EC30) result is reported as “+++ (“+++” means <3 uM)”.

Staying with this assay, now noted: F508del CFTR modulator activity; compounds of Table 1; read-out: EC30.
With `COc1c(F)cc(F)cc1-c1ccc(C(=O)NS(=O)(=O)c2cccnc2N)c(N2C[C@@H](C)CC2(C)C)n1` [Compound 2006, N-[(2-amino-3-pyridyl)sulfonyl]-6-(3,5-difluoro-2-methoxy-phenyl)-2-[(4S)-2,2,4-trimethylpyrrolidin-1-yl]pyridine-3-carboxamide], the EC30 was less than 3 µM.
In the case of `CC(C)COc1cc(F)cc(-c2ccc(C(=O)NS(=O)(=O)c3cccc(N)n3)c(N3C[C@@H](C)CC3(C)C)c2F)c1` [Compound 2634, N-[(6-amino-2-pyridyl)sulfonyl]-3-fluoro-4-(3-fluoro-5-isobutoxy-phenyl)-2-[(4S)-2,2,4-trimethylpyrrolidin-1-yl]benzamide], the EC30 is less than 3 µM.
`CC1CN(c2ncccc2C(=O)NS(=O)(=O)c2cccc(NCCc3cccs3)n2)C(C)(C)C1` (centres unmarked) [Compound 2146, N—[[6-[2-(2-thienyl)ethylamino]-2-pyridyl]sulfonyl]-2-(2,2,4-trimethylpyrrolidin-1-yl)pyridine-3-carboxamide]: the EC30 was less than 3 µM.
With `CC(C)COc1cc(F)cc(-c2ccc(C(=O)NS(=O)(=O)c3cccc(N)n3)c(N3CC(F)C3)n2)c1` [Compound 2128, N-[(6-amino-2-pyridyl)sulfonyl]-2-(3-fluoroazetidin-1-yl)-6-(3-fluoro-5-isobutoxy-phenyl)pyridine-3-carboxamide], the EC30 lay within 3 to 10 µM.
With `CCOC(=O)c1ccc(Nc2cccc(S(=O)(=O)NC(=O)c3cccnc3N3CC(C)CC3(C)C)n2)cc1` (centres unmarked) [Compound 2122, ethyl 4-[[6-[[2-(2,2,4-trimethylpyrrolidin-1-yl)pyridine-3-carbonyl]sulfamoyl]-2-pyridyl]amino]benzoate], the concentration for an effect of 30% (EC30) was less than 3 µM.
On the same count and under the same terms, the result for `CC1CN(c2ncccc2C(=O)NS(=O)(=O)c2cccc(N3Cc4ccc(F)cc4C3)n2)C(C)(C)C1` (centres unmarked) [Compound 2580, N—[[6-(5-fluoroisoindolin-2-yl)-2-pyridyl]sulfonyl]-2-(2,2,4-trimethylpyrrolidin-1-yl)pyridine-3-carboxamide] reads less than 3 µM.
For the molecule `C[C@@H]1CN(c2nc(-n3ccc(C4CC4)n3)ccc2C(=O)NS(=O)(=O)c2cccnc2N)C(C)(C)C1` [Compound 2695], the 30% effect concentration (EC30) is less than 3 µM.
For `CC(C)COc1cc(F)cc(-c2ccc(C(=O)NS(=O)(=O)c3cccc(N)n3)c(N3CCC[C@@H]3C(=O)OC(C)(C)C)n2)c1` [Compound 2216, tert-butyl (2R)-1-[3-[(6-amino-2-pyridyl)sulfonylcarbamoyl]-6-(3-fluoro-5-isobutoxy-phenyl)-2-pyridyl]pyrrolidin-2-carboxylate], the 30% effect concentration (EC30) is less than 3 µM.
Same read-out and setting: the result for `CC(=O)c1cccc(Oc2cccc(S(=O)(=O)NC(=O)c3cccnc3N3CC(C)CC3(C)C)n2)c1` (centres unmarked) [Compound 2569, N—[[6-(3-acetylphenoxy)-2-pyridyl]sulfonyl]-2-(2,2,4-trimethylpyrrolidin-1-yl)pyridine-3-carboxamide] reads less than 3 µM; that for `C[C@@H]1CN(c2nc(-c3ccc(F)cc3F)ccc2C(=O)NS(=O)(=O)c2cccc(N)n2)C(C)(C)C1` [Compound 2372, N-[(6-amino-2-pyridyl)sulfonyl]-6-(2,4-difluorophenyl)-2-[(4S)-2,2,4-trimethylpyrrolidin-1-yl]pyridine-3-carboxamide], less than 3 µM; that for `CC1CN(c2ncccc2C(=O)NS(=O)(=O)c2cccc(N3CCCc4ccccc43)n2)C(C)(C)C1` (centres unmarked) [Compound 2382, N—[[6-(3,4-dihydro-2H-quinolin-1-yl)-2-pyridyl]sulfonyl]-2-(2,2,4-trimethylpyrrolidin-1-yl)pyridine-3-carboxamide], less than 3 µM.
Still for that read-out and setting: the result for `Cc1ccc(-c2ccc(C(=O)NS(=O)(=O)c3cccnc3N)c(N3C[C@@H](C)CC3(C)C)n2)cc1` [Compound 2132, N-[(2-amino-3-pyridyl)sulfonyl]-6-(p-tolyl)-2-[(4S)-2,2,4-trimethylpyrrolidin-1-yl]pyridine-3-carboxamide] reads less than 3 µM.

Still in this assay, the particulars now being: Table 3; compounds of Table 1 as modulators of CFTR activity; protocol not stated.
For the molecule `CC(C)COc1cc(F)cc(-c2ccc(C(=O)NS(=O)(=O)c3ccn[nH]3)c(N3CCC(F)(F)C3)n2)c1` [Compound 565, 2-(3,3-difluoropyrrolidin-1-yl)-6-(3-fluoro-5-isobutoxy-phenyl)-N-(1H-pyrazol-5-ylsulfonyl)pyridine-3-carboxamide], the concentration for an effect of 30% (EC30) result is recorded as “+ (“+” means greater than 10 uM)”.
On to `Cc1cc(C)c(Cn2nc(C(C)(C)C)c(C)c2C(=O)NS(=O)(=O)c2cccc(N)c2)c(C)c1` [Compound 20, N-(3-aminophenyl)sulfonyl-5-tert-butyl-4-methyl-2-[(2,4,6-trimethylphenyl)methyl]pyrazole-3-carboxamide], for which the 30% effect concentration (EC30) entry was “+++ (“+++” means <3 uM)”.
Take `Cc1cc(C)c(Oc2nc(-c3ccc(Cl)c(OCC(C)C)c3)ccc2C(=O)NS(=O)(=O)c2ccc[nH]c2=O)c(C)c1` [Compound 136, 6-(4-chloro-3-isobutoxy-phenyl)-N-[(2-oxo-1H-pyridin-3-yl)sulfonyl]-2-(2,4,6-trimethylphenoxy)pyridine-3-carboxamide]: the EC30 entry was “+++ (“+++” means <3 uM)”.
`CCOc1cccc(-c2ccc(C(=O)NS(=O)(=O)c3cccc(N)n3)c(Oc3c(C)cc(C)cc3C)n2)c1` [Compound 61, N-[(6-amino-2-pyridyl)sulfonyl]-6-(3-ethoxyphenyl)-2-(2,4,6-trimethylphenoxy)pyridine-3-carboxamide]: the EC30 result was “+++ (“+++” means <3 uM)”.
For `Cc1cc(C)c(Cn2nc(-c3ccccc3)cc2C(=O)NS(=O)(=O)c2cccc(N)c2)c(C)c1` [Compound 366], the 30% effect concentration (EC30) result is listed as “+++ (“+++” means <3 uM)”.
As to `Cc1cc(C)c(Oc2nc(-c3ccc(C)c(C)c3)ccc2C(=O)NS(=O)(=O)c2cccc(N)n2)c(C)c1` [Compound 399, N-[(6-amino-2-pyridyl)sulfonyl]-6-(3,4-dimethylphenyl)-2-(2,4,6-trimethylphenoxy)pyridine-3-carboxamide], the concentration for an effect of 30% (EC30) entry is “+++ (“+++” means <3 uM)”.
The same measure, in the same setting: the result for `COc1cccc2c1cc(C(=O)NS(=O)(=O)c1cccc(N)c1)n2Cc1c(C)cc(C)cc1C` [Compound 120, N-(3-aminophenyl)sulfonyl-4-methoxy-1-[(2,4,6-trimethylphenyl)methyl]indole-2-carboxamide] reads “+++ (“+++” means <3 uM)”; that for `C[C@@H]1CC[C@H](C)N1c1nc(-c2cc(F)cc(OCC3CC3)c2)ccc1C(=O)NS(=O)(=O)c1ccc[nH]c1=O` [Compound 541, 6-[3-(cyclopropylmethoxy)-5-fluoro-phenyl]-2-[(2S,5R)-2,5-dimethylpyrrolidin-1-yl]-N-[(2-oxo-1H-pyridin-3-yl)sulfonyl]pyridine-3-carboxamide], “+++ (“+++” means <3 uM)”; that for `CCOc1ccccc1-c1cc(C(=O)NS(=O)(=O)c2ccccc2)n(Cc2c(C)cccc2C)n1` [Compound 152, N-(benzenesulfonyl)-2-[(2,6-dimethylphenyl)methyl]-5-(2-ethoxyphenyl)pyrazole-3-carboxamide], “+++ (“+++” means <3 uM)”.
As to `CC(C)COc1ccc(-c2ccc(C(=O)NS(=O)(=O)c3cccc(N)n3)c(N3CC(C)CC3(C)C)n2)cn1` (centres unmarked) [Compound 471, N-[(6-amino-2-pyridyl)sulfonyl]-6-(6-isobutoxy-3-pyridyl)-2-(2,2,4-trimethylpyrrolidin-1-yl)pyridine-3-carboxamide], the EC30 result is recorded as “+++ (“+++” means <3 uM)”.
As for `COc1ccc(-c2ccc(C(=O)NS(=O)(=O)c3cccc(N)n3)c(Oc3c(C)cc(C)cc3C)n2)c(OC)n1` [Compound 754, N-[(6-amino-2-pyridyl)sulfonyl]-6-(2,6-dimethoxy-3-pyridyl)-2-(2,4,6-trimethylphenoxy)pyridine-3-carboxamide], the 30% effect concentration (EC30) result was “+++ (“+++” means <3 uM)”.
Turning to `C[C@@H]1CC[C@H](C)N1c1nc(-c2cncc(OC3CCCC3)c2)ccc1C(=O)NS(=O)(=O)c1cccc(N)n1` [Compound 495, N-[(6-amino-2-pyridyl)sulfonyl]-6-[5-(cyclopentoxy)-3-pyridyl]-2-[(2S,5R)-2,5-dimethylpyrrolidin-1-yl]pyridine-3-carboxamide], the EC30 result is “++ (“++” means between 3 uM and 10 uM)”.
For the molecule `CNc1cccc(S(=O)(=O)NC(=O)c2ccc(C(C)(C)C)nc2Oc2c(C)cc(C)cc2C)c1` [Compound 289, 6-tert-butyl-N-[3-(methylamino)phenyl]sulfonyl-2-(2,4,6-trimethylphenoxy)pyridine-3-carboxamide], the 30% effect concentration (EC30) result is given as “+++ (“+++” means <3 uM)”.
As to `Cc1cc(C)c(Oc2nc(-c3ccc(C(F)(F)F)nc3)ccc2C(=O)NS(=O)(=O)c2cccc(N)n2)c(C)c1` [Compound 132, N-[(6-amino-2-pyridyl)sulfonyl]-6-[6-(trifluoromethyl)-3-pyridyl]-2-(2,4,6-trimethylphenoxy)pyridine-3-carboxamide], the 30% effect concentration (EC30) entry was “+++ (“+++” means <3 uM)”.
In the case of `COc1cccc(S(=O)(=O)NC(=O)c2ccc(C(C)(C)C)nc2-c2ccc(C)cc2)n1` [Compound 75, 6-tert-butyl-N-[(6-methoxy-2-pyridyl)sulfonyl]-2-(p-tolyl)pyridine-3-carboxamide], the EC30 entry was “++ (“++” means between 3 uM and 10 uM)”.
Same read-out and setting: the result for `C[C@@H]1CC[C@H](C)N1c1nc(-c2ccccc2)ccc1C(=O)NS(=O)(=O)c1ccc[nH]c1=O` [Compound 660, 2-[(2S,5R)-2,5-dimethylpyrrolidin-1-yl]-N-[(2-oxo-1H-pyridin-3-yl)sulfonyl]-6-phenyl-pyridine-3-carboxamide] reads “+ (“+” means greater than 10 uM)”.

The record behind these values is patent US10758534B2 (Vertex Pharmaceuticals Incorporated, priority 2014, dated 2020).
